In US7879792B2, “Synthetic peptide inhibitors of thrombin and thrombin activation of protease activated receptors 1 and 4” (The Regents of the University of Michigan, priority 2005, dated 2011):
Like-named read-outs stand apart in the source and are kept apart here. Where a SMILES comes first, the peptide text is derived from it.

Columns and labels:
[1] = tested on: γ-thrombin-induced platelet aggregation; test: γ-thrombin-induced platelet aggregation in human platelet-rich plasma; assay type: cell-based; details: for Concentration of Peptide [mM] That Gives 100% Inhibition: 40 nM human gamma thrombin, human platelet-rich plasma; for concentration that abolished γ-thrombin-induced platelet aggregation: 40 nM γ-thrombin
Description: Fresh whole blood was collected and mixed with 0.013 M sodium citrate and platelet-rich plasma was prepared according to the method of Meloni et al., J. Biol. Chem. 266, 6786 (1991). Platelet-rich plasma with a normalized platelet count between 2-2.5×10^8 platelets/ml was added to a cuvette of an aggregometer (Chronlog Corp., Havertown, Pa.), standardized using the protocol of Meloni et al., supra. Peptides to be examined were added to the cuvette and the mixture stabilized for a few moments. Once the baseline was stabilized, γ-thrombin (10-70 nM) (Haematologic Technologies, Essex Junction, Vt.) was added to determine the minimal concentration of the agonist necessary to achieve full platelet aggregation. All investigations with peptides were performed using threshold concentrations of γ-thrombin. Aggregation was allowed to proceed for 5 minutes before stopping.
Table III is a tabulation of the library of peptides prepared and their influence on γ-thrombin-induced platelet aggregation in platelet-rich plasma. […] The numbers in the column represent the minimal concentration (mM) of the peptide that blocked 100% γ-thrombin-induced platelet aggregation of platelets in human platelet-rich plasma.
Human platelet samples were stimulated with 40 nM human gamma thrombin in each experiment.

[2] = tested on: normal human citrated plasma; test: prothrombin time (PT); assay type: biochemical
Description: (§1) The influence of the various peptide formulations used in the present invention on established coagulation-based assays was determined. The activated partial thromboplastin time (APTT) is performed by mixing 0.05 ml normal human citrated plasma with 0.05 ml activated partial thromboplastin reagent purchased from Organon Teknika, Research Triangle Park, NC in the absence or presence of a peptide inhibitor. After incubation for 5 min at 37° C., the mixture is recalcified with 0.05 ml of 30 mM calcium chloride and the time to clot formation is measured in an Amelung KC4A instrument (Sigma Chemical Corp, St. Louis, Mo.) (Hasan et al. Thrombosis and Haemostasis. 82, 1182-1187 (1999)). The prothrombin time (PT) is performed by mixing 0.05 ml normal human citrated plasma with 0.05 ml Simplastin (Organon Teknika, Research Triangle Park, NC) followed by incubation for 3 min at 37° C. in the absence or presence of a peptide inhibitor. At the addition of 0.05 ml of 30 mM calcium chloride, the time to clot formation is measured in an KC4A instrument (Sigma Chemical Corp, St. Louis, Mo.) (Hasan et al. Thrombosis and Haemostasis. 82, 1182-1187 (1999)). The thrombin clotting time (TCT) is performed by adding 0.1 ml normal human citrated plasma in the absence or presence of a peptide inhibitor and 0.05 ml of a α-thrombin solution such that the final concentration of the thrombin in the entire mixture was 1 nM. Upon addition of the thrombin, the time to clot formation is measured in an KC4A instrument (Sigma Chemical Corp, St. Louis, Mo.).

[3] = tested on: normal human citrated plasma; test: activated partial thromboplastin time (APTT); assay type: biochemical
Description: as §1

[4] = target: γ-thrombin; test: inhibition of γ-thrombin hydrolysis of chromogenic substrate; assay type: biochemical, human; details: read-out: Ki (μM) + SD, γIIa (2 nM), gamma-thrombin 2 nM, Sar-Pro-Arg-paranitroanilide
[5] = tested on: normal human lung fibroblasts (NHLF); test: α-thrombin-induced calcium mobilization in normal human lung fibroblasts; assay type: cell-based; details: 2 nM alpha thrombin
Description: The second assay developed to assess peptides from the combinatorial libraries uses inhibition of α-thrombin-induced calcium mobilization in fibroblasts. Normal human lung fibroblasts (NHLF) were purchased from Clonetics, San Diego, Calif., an affiliate of Bio-Wittaker, Walkersville, Md. The cytoplasmic free Ca^2+ concentration ([Ca^2+]i) was measured using the fluorescent Ca^2+ indicator fura-2 (Molecular Probes, Inc., Eugene, Oreg.). Suspension of fibroblasts in Hepes-Tyrode's buffer were loaded with fura-2 by incubation at 37° C. with 2 μM fura-2/acetoxymethyl ester for 45 minutes according to the method of Rasmussen et al., J. Biol. Chem. 268, 14322 (1993). The labeled fibroblasts were separated from excess probe by washing by centrifugation at 1000 rpm (180 xg). Aliquots of the labeled fibroblasts were transferred into a quartz cuvette with a magnetic stirrer, which was then placed in a thermostatically controlled chamber at 37° C. in a fluorescence spectrophotometer (Perkin-Elmer LS50B spectrofluorometer, Chicago, Ill.). Reagents, test peptide, and α-thrombin (0.25-2 nM), were sequentially added directly to the cuvette. The excitation wavelengths varied between 340 and 380 nm. Fluorescence was measured by recording emitted light at 510 nm as reported by Fisher et al., Mol Pharm. 35, 195 (1989). The minimum emission was determined on a solubilized fibroblast sample in the presence of 10 mM EDTA; maximum emission was determined on the same sample with 10 mM Ca^2+ added. The intrafibroblast free Ca^2+ concentration was calculated by the method of Grykiewicz et al., J. Biol. Chem. 260, 3440 (1985). The ratio of the fluorescence readings was calculated as R=340/380 nm and processed according to the equation [Ca^2+]i=KD((R−Rmin)/Rmax−R))(Sf2/Sb2) to determine the intrafibroblast free Ca^2+ concentration. The KD for fura-2 was assumed to be 224 nM. Rmax and Rmin are the maximum and minimum fluorescence ratios measured at the end of the experiment, respectively; Sf2 and Sb2 are the fluorescence values at 380 nm in the absence and presence of saturating [Ca^2+], respectively. The reaction was monitored for 3-5 minutes.

[6] = target: human α-thrombin (Homo sapiens, UniProt P00734); test: inhibition of α-thrombin hydrolysis of chromogenic substrate; assay type: biochemical; details: Ki (μM) + SD, αIIa (2 nM), alpha-thrombin 2 nM, Sar-Pro-Arg-paranitroanilide
[7] = tested on: normal human citrated plasma; test: thrombin clotting time (TCT); assay type: biochemical; details: 1 nM thrombin
Description: as §1

| Compound | Concentration of Peptide [mM] That Gives 100% Inhibition [1] [mM] | concentration that abolished γ-thrombin-induced platelet aggregation [1] [µM] | peptide concentration with significant prolongation (p<0.05) of the PT [2] [µM] | peptide concentration with significant prolongation (p<0.05) of the APTT [3] [µM] | Ki [4] [µM] | inhibition of thrombin-induced calcium mobilization ([5]; 0.005 mM peptide) [%] | inhibition of thrombin-induced calcium mobilization ([5]; 0.02 mM peptide) [%] | Ki [6] [µM] | peptide concentration with significant prolongation (p<0.05) of the TCT [7] [µM] | Ki ([4]; listed as rOicPsF(p-I)) [µM] | Ki ([4]; listed as rOicPsF(p-NO2)) [µM] |
| --- | --- | --- | --- | --- | --- | --- | --- | --- | --- | --- | --- |
| C[C@@H](NC(=O)[C@@H]1CCCN1C(=O)[C@@H]1C[C@@H]2CCCC[C@@H]2N1C(=O)[C@H](N)CCCNC(=N)N)C(=O)N[C@@H](Cc1ccc(Br)cc1)C(N)=O [rOicPaF(p-Br), D-Arg-Oic-Pro-D-Ala-Phe(p-Br)] (HELM PEPTIDE1{[dR].[O=C([C@@H]1C[C@@H]2CCCC[C@@H]2N1[*:1])[*:2]].P.[dA].[O=C([C@H](Cc1ccc(Br)cc1)N[*:1])[*:2]].[am]}$$$$V2.0) | 0.018 | 18 | 6.25 | 12.5 | 48.7 ± 7 | 35 | 84 | 6.4 to 10.6 | 0.78 |  |  |
| C[C@@H](NC(=O)[C@@H]1CCCN1C(=O)[C@@H]1C[C@@H]2CCCC[C@@H]2N1C(=O)[C@H](N)CCCNC(=N)N)C(=O)N[C@@H](Cc1ccc(I)cc1)C(N)=O [rOicPaF(p-I), D-Arg-Oic-Pro-D-Ala-Phe(p-I)] (HELM PEPTIDE1{[dR].[O=C([C@@H]1C[C@@H]2CCCC[C@@H]2N1[*:1])[*:2]].P.[dA].[O=C([C@H](Cc1ccc(I)cc1)N[*:1])[*:2]].[am]}$$$$V2.0; N-terminus assumed) | 0.023 | 23 | 6.25 | 25 |  | 36 | 88 |  | 0.78 | 59.2 ± 13 |  |
| C[C@@H](NC(=O)[C@@H]1CCCN1C(=O)[C@@H]1C[C@@H]2CCCC[C@@H]2N1C(=O)[C@H](N)CCCNC(=N)N)C(=O)N[C@@H](Cc1ccc([N+](=O)[O-])cc1)C(N)=O [rOicPaF(p-NO2), D-Arg-Oic-Pro-D-Ala-Phe(p-NO2)] (HELM PEPTIDE1{[dR].[O=C([C@@H]1C[C@@H]2CCCC[C@@H]2N1[*:1])[*:2]].P.[dA].[O=C([C@H](Cc1ccc([N+](=O)[O-])cc1)N[*:1])[*:2]].[am]}$$$$V2.0; N-terminus assumed) | 0.033 | 33 | 6.25 | 50 |  | 26 | 47 |  | 1.56 |  | 87.9 ± 16 |
